# Test results as given in patent US20210121482A1, “WITHANOLIDES FOR THE TREATMENT OF CACHEXIA” (University of Louisville Research Foundation, Inc., priority 2019, published 2021).
# Where two headings read alike, the source gives them in different places.
# Assays:
# [1] = test system: inflammatory cytokines and NLRP3 inflammasome markers in TA muscle; assay: qPCR of TA muscle; type: in vivo, Mus musculus
# Description: (§1) Total RNA Extraction and qPCR: Isolation of total RNA from xenografted tumor samples was performed using an RNeasy® Mini Kit (Qiagen Catalog #74104) according to the manufacturer's instructions. Isolation of total RNA from skeletal muscle was performed using an RNeasy® Fibrous Tissue Mini Kit (Qiagen Catalog #74704) according to the manufacturer's instructions. First strand cDNA was synthesized using 1 μg of purified RNA and a commercially available kit (iScript™ cDNA synthesis, Bio-Rad Catalog #170-8891), Quantification of mRNA expression was performed similar to as previously described (Hindi and Kumar, 2016) using the SYBR Green dye method on a StepOnePlus™ system (Applied Biosystems) using gene-specific primers, as shown in Table 1.
# [2] = test system: ovarian cancer-induced cachexia; assay: Grip strength (Example 1); type: in vivo, mice; conditions: for normalized forelimb grip strength: 2 and 6 mg/kg
# Description: Grip Strength Measurements: Before assessment, mice were weighed on a commercially available digital scale. Forepaw and total grip strength of mice were measured using a digital grip strength meter (Columbus Instruments, Columbus, Ohio, USA) and then normalized by total body weight. Before the beginning of the test, the mice were acclimatized for five minutes. The mouse was allowed to grasp the total paw pull-bar assembly, and in a separate experiment the forepaw pull-bar assembly. The mouse was then gently drawn with constant force in a straight line away from the device until the mouse could no longer grasp the bar. Force at time of release was recorded as the peak tension. Each mouse was tested five times with a delay of 20-40 seconds between each testing. The mean peak tension was calculated from the recordings normalized by total body weight.
# [3] = test system: Tn-I, AT2R and pro-inflammatory cytokines in the heart; assay: qPCR of heart; type: in vivo, Mus musculus; conditions: for relative transcript level of AT2R in the heart: compared to control
# Description: as §1
# Isolation and preparation of total RNA was performed as described in Example 1.
# TA, GA and QF muscles = assay: Skeletal muscle weight and myofiber CSA (Example 1); type: in vivo, mice
# Description: Histology and Morphometric Analysis of Skeletal Muscle: The tibialis anterior (TA), gastrocnemius (GA) and quadriceps femoris (QF) of the mice were isolated, flash frozen in liquid nitrogen, mounted in OCT embedding medium, and then sectioned using a microtome cryostat. To assess tissue morphology, 10 μm thick transverse sections were cut from the mid-belly of the muscle and then subjected to hematoxylin and eosin (H&E) staining. Images of H&E-stained TA/GA/QF muscle sections were quantified using Image J and/or Fiji software to measure myofiber cross-sectional area (CSA). Myofiber CSA was calculated by analyzing ˜350-500 myofibers per muscle.
# [4] = test system: left ventricular systolic and diastolic function; assay: Echocardiography; type: in vivo, mice
# Description: Left ventricular (LV) systolic and diastolic function were evaluated by transthoracic echocardiography using a Vevo 3100 system and a 40 MHz linear probe (FUJIFILM VisualSonics Inc., Toronto, Ontario, Canada). Mice were anesthetized with isoflurane, maintained at an equivalent surgical depth of anesthesia (induction chamber at 5% with 1.5-2.0 L/min 02 flow, followed by 1.5-2.0% with 1.5-2.0 L/min 02 flow), and placed in the supine position. The skin over the thorax was shaved and then briefly subjected to a depilatory cream. Body temperature was maintained at 37-38° C., and heart rate was monitored using the accompanying Vevo Imaging Station. Briefly, variables that represent diastolic function (E/A ratio, isovolumetric relaxation time (IVRT), and (E/e′) were measured during the resting condition from an apical four-chamber view with conventional pulsed wave tissue Doppler. The E/A ratio was calculated from the peak velocity flow in early diastole (the E wave) to the peak velocity flow in late diastole caused by atrial contraction (the A wave) during resting conditions.
# An image was captured along the parasternal short axis and analyzed offline using the Vevo® Lab software. Standard measures of LV structure [i.e., LV internal diameter (LVID) and LV posterior wall thickness (PWT)] and function [i.e., stroke volume (SV), cardiac output (CO), and ejection fraction (EF)] were obtained along the parasternal short axis during resting and stress conditions. In M-mode, wall thickness and chamber dimensions across the sample line were used to calculate anatomical and functional parameters. End-diastolic and end-systolic volumes were estimated from LVID […]. Results from five cardiac cycles during expiration were averaged together and used for between-group and within-group comparisons. Continuous ECG and heart rate monitoring were performed over a period of one hour while the other measurements were collected.
# [5] = test system: A2780 ovarian cancer xenograft; assay: Survival and tolerability, A2780 xenograft mice (Example 1)
# Description: (§2) Tumor-bearing groups received an IP injection of 1.0×10^6 low passage A2780 cells suspended in 100 μl sterile PBS.
# (§3) Graphical Display and Statistical Analyses: The majority of the results were expressed as box-and-whisker plots with the box comprised of the first, second, and third quartiles, and the lower and upper whiskers corresponding to the minimum and maximum values, respectively, to display the entire range of data. A Kaplan-Meier curve was used for the survival analysis. Statistical analysis of the data was performed using one-way analysis of variance (ANOVA) followed by Tukey's Honestly Significant Difference Test (HSDT) post hoc analysis or the Mantel-Cox log-rank test to determine statistically significant differences between groups with GraphPad Prism 8.0.1 software for Mac (La Jolla, Calif., USA). A value of P<0.05 was considered statistically significant, unless otherwise specified.
# [6] = test system: A2780 ovarian cancer xenograft; conditions: mouse, in vivo
# Description: as §2, §3
# [7] = 2 mg/kg, vs vehicle treated group
# [8] = 6 mg/kg, vs vehicle treated group
# [9] = 2 and 6 mg/kg, vs control group
# [10] = 2 and 6 mg/kg, vs vehicle treated group
# [11] = tumor-bearing, 2 and 4 mg/kg, vs tumor-bearing vehicle
structure (smiles),measurement,setting,value
"CC1=C(CO)C(=O)O[C@@H]([C@@H](C)[C@H]2CC[C@H]3[C@@H]4C[C@H]5O[C@]56[C@@H](O)C=CC(=O)[C@]6(C)[C@H]4CC[C@]23C)C1 [WFA, (4β,5β,6β,22R)-4,27-Dihydroxy-5,6:22,26-diepoxyergosta-2,24-diene-1,26-dione]","relative mRNA levels of TNFα, IFNγ, IL-6, MIP-2 in TA muscle",[1]; [7],significantly reduced
same,transcript levels of HO-1 in TA muscle,[1]; [7],increased compared to the vehicle treated group
same,"transcript levels of NLRP3, CASP1, IL-1β, IL-18 in TA muscle",[1]; [7],significant reduction in all tested NLRP3 inflammasome transcript levels
same,"relative mRNA levels of TNFα, IFNγ, IL-6, MIP-2 in TA muscle","[1]; 6 mg/kg, vs control and WFA 2 mg/kg groups",robust increase in the expression of select proinflammatory cytokines
same,transcript levels of CASP1 and IL-1β in TA muscle,"[1]; 6 mg/kg, vs control group",significantly increased
same,transcript levels of HO-1 in TA muscle,"[1]; 6 mg/kg, vs control or vehicle treated groups",no significant changes in HO-1 expression
same,relative mRNA levels of NLRP3 and IL-18 in TA muscle,[1]; [8],significantly reduced
same,relative transcript levels of IFNγ and MIP-2 in TA muscle,[1]; [8],significantly reduced
same,relative transcript levels of TNFα and IL-6 in TA muscle,"[1]; 6 mg/kg, vs vehicle treated group (p=0.09 and <0.0001)",increased
same,normalized total limb grip strength,"[2]; 2 mg/kg, vs vehicle treated group, weeks 1-3",significant protective effect on total limb grip strength
same,normalized total limb grip strength,[2]; [8],"initially protective, but the grip strength eventually deteriorated to the same extent as the vehicle treated group"
same,normalized forelimb grip strength,"[2]; vs control group, significant at week 3",reduction in normalized grip strength
same,normalized forelimb grip strength,"[2]; vs vehicle treated group, significant by week 2",attenuation of normalized forelimb grip strength
same,"relative transcript levels of TNFα, IL-6, MIP-2, IFNγ in the heart",[3]; tumor-bearing WFA-treated groups,significantly reduced in the WFA-treated groups
same,transcript levels of IFNγ in the heart,"[3]; tumor-bearing WFA-treated groups, normalized to tumor-bearing vehicle",significantly reduced in the WFA-treated groups
same,relative transcript level of AT2R in the heart,"[3]; tumor-bearing, WFA 2 mg/kg",3.5±1.8 fold
same,relative transcript level of AT2R in the heart,"[3]; tumor-bearing, WFA 4 mg/kg",5.2±3.2 fold
same,reduction in relative transcript levels of Troponin-I (Tn-I) in heart,"[3]; tumor-bearing, both doses, vs tumor-bearing vehicle",significantly blunted
same,normalized wet weight of gastrocnemius (GA),"TA, GA and QF muscles; 2 mg/kg, vs control group",significant reduction in normalized wet weight
same,myofibrillar CSA in GA muscle,"TA, GA and QF muscles; 2 mg/kg, vs control group (p=0.09)",restoration of myofibrillar CSA
same,wet weight of quadriceps femoris (QF),"TA, GA and QF muscles; 6 mg/kg, vs control group",significant reduction in wet weight
same,restoration of myofibrillar CSA in GA muscle,"TA, GA and QF muscles; 6 mg/kg, vs control group (p=0.007)",not those treated with 6 mg/kg of WFA
same,average myofiber CSA (TA and QF),"TA, GA and QF muscles; [9]",significant reduction in average myofiber CSA
same,normalized wet weight of tibialis anterior (TA),"TA, GA and QF muscles; [9]",significant reduction in normalized wet weight
same,"average myofiber CSA (TA, GA, QF)","TA, GA and QF muscles; [10]",significantly greater than the vehicle treated group
same,"normalized muscle weights (TA, GA, QF)","TA, GA and QF muscles; [10]",no difference between the vehicle and WFA treated groups
same,isovolumetric relaxation time (IVRT),[4]; WFA vs vehicle within tumor-free or tumor-bearing groups,no significant differences within the tumor-free or tumor-bearing groups
same,cardiac output (CO),"[4]; tumor-bearing mice, WFA treatment",similarly normalized
same,LV mass,[4]; [11],significant increase in LV mass
same,"diastolic dysfunction (E/A ratio, E/e′ ratio)",[4]; [11],partially improved
same,fractional shortening (FS),"[4]; tumor-bearing, WFA 2 mg/kg",57.8±3.6%
same,fractional shortening (FS),"[4]; tumor-bearing, WFA 4 mg/kg",55.3±3.2%
same,diastolic function,[4]; tumor-free animals,did not affect diastolic function in tumor-free animals
same,HR and CO,"[4]; tumor-free mice, WFA treatment",did not have any effect on HR or CO in tumor-free mice
same,heart rate,[4]; tumor-free or tumor-bearing WFA-treated groups vs tumor-free vehicle,No significant differences in heart rate
same,LV mass,"[4]; tumor-free, vehicle vs either dose of WFA",No significant difference in LV mass
same,survival (Kaplan-Meier),"[5]; 2 mg/kg, vs WFA 6 mg/kg and vehicle treated groups",higher survival rate
same,toxicity of high dose,"[5]; 6 mg/kg IP every three days, tumor-bearing NSG mice",may be a lethal dose
same,survival (Kaplan-Meier),"[5]; 6 mg/kg, vs vehicle treated group (p=0.06)",trend towards an increase in survival
same,toxicity of high dose,[6],turned out to be toxic
